{"source": "patent US10881678B2", "about": "“Cytotoxic agents for the treatment of cancer” (CytRx Corporation, priority 2013, dated 2021)", "key": {"[1]": {"test_system": "U87-luc glioma cells", "assay": "Intracranial U87-luc glioblastoma xenograft in mice, Example 1 (bioluminescent imaging, survival)", "assay_type": "in vivo", "details": "for difference in tumor growth between 8 days and 22 days within the group: aldoxorubicin p>0.05, doxorubicin p<0.05; for survival time compared with vehicle-treated mice (Kaplan-Meier): result in words, aldoxorubicin also vs doxorubicin-treated group", "method": "Intracranial implantation of U87-luc glioma cells in mice: A U87MG subline, U87-luc with a luciferase reporter gene was used for establishing intracranial human glioblastoma tumors. Female BALB/c (nu/nu) mice, 6-8 weeks of age, were anesthetized with a ketamine/xylazine cocktail solution. Animals were secured in a Harvard Apparatus stereotaxic head frame, a 1 cm midline scalp incision was made, and 5×10^5 cells in 5 μL serum-free DMEM were injected into the left striatum (coordinates: 2.5 mm lateral and 0.5 mm posterior to the bregma) through a burr hole in the skull using a 10 μl Hamilton syringe to deliver tumor cells to a 3.5 mm intraparenchymal depth. The burr hole in the skull was sealed with bone wax and the incision closed using wound glue. Tumor growth was evaluated by bioluminescent imaging.\nAldoxorubicin treatment of mice: The study consisted of 8 vehicle-treated control mice (group C), 8 doxorubicin-treated mice (group D), and 8 aldoxorubicin-treated mice (group A). Treatment was initiated twelve days after intracranial implantation of glioblastoma multiforme (GBM) cells. Vehicle (10 mM sodium phosphate, 5% D-(+)-glucose, pH 6.4) or aldoxorubicin was administered intravenously for a total of six injections (i.e., 12, 19, 26, 42, 50, and 56, days after cell implantation). All the doses were ˜75% of the maximum tolerated dose (MTD) of 32 mg/kg/inj in mice except that the dose given after 50 days of cell implantation was 50% of the MTD. Doxorubicin was administered intravenously for a total of two injections (i.e., 12 and 19 days after cell implantation) with ˜75% of the MTD of 8 mg/kg/inj. Both the drugs and the vehicle were administered using an injection volume of 0.15 ml.\nIn vivo imaging of intracranial tumors: Intracranial tumor growth was quantified by bioluminescent imaging using an in vivo imaging system (Xenogen, Palo Alto, Calif.). All mice were given an IP injection of 100 μl of 30 mg/ml D-luciferin (PerkinElmer) suspended in DPBS 10 minutes before imaging to provide a substrate for the luciferase enzyme. Prior to imaging, mice were anesthetized with inhalation of isoflurane gas. Images were captured using the Xenogen Ivis 200 imaging system and quantified with Living Image 4.1 software from Xenogen for a region of interest that encompassed the head of the mouse. Image intensities were expressed as photons/sec/cm^2/sr.\nStatistical Analysis: The log-rank test was used to create Kaplan-Meier survival curves to compare survival between control and drug-treated mice using the Statistical Analysis Software of SAS Institute, Inc., Cary, N.C. Differences between groups were assessed using the unpaired Student's t test. AR values are shown as the mean±standard deviation. A p value≤0.05 was considered statistically significant."}, "[2]": {"test_system": "U87-luc glioma cells", "assay": "Intracranial U87-luc glioblastoma xenograft in mice, Example 2 (bioluminescent imaging, survival)", "assay_type": "in vivo", "method": "Female mice (6-8 weeks of age) were implanted intracranially with U87-luc subline with luciferase reporter gene to establish human glioblastoma tumors. Tumor growth was evaluated by bioluminescent imaging using D-luciferin substrate. 8 mice were treated with aldoxorubicin and 8 were treated with phosphate buffer saline (vehicle). Treatment started 9 days after implantation of the GBM cells. Aldoxorubicin or vehicle was administered i.v. once a week for three weeks (9, 16, and 23 days after cell implantation). The first two doses of aldoxorubicin were 75% and the third dose was 50% of the MTD of 32 mg/kg/injection in mice."}, "[3]": {"assay": "Plasma and tissue distribution by HPLC in intracranial tumor-bearing mice", "assay_type": "in vivo", "method": "(§1) HPLC System and Conditions: An Agilent 1100 Series HPLC System (Wilmington, Del., USA) having a scanning fluorescent detector with excitation and emission wavelengths set at 480 and 560 nm, respectively, was used. Agilent Chemstation software was used for data acquisition. Separation was achieved on a Waters Spherisorb ODS2 column (4 mm×250 mm, 5 μm) fitted with a guard cartridge (BDS-Hypersil-C18, 5 μM). Elution was performed with mobile phase containing 65% monosodium phosphate, pH 2.2, and 35% acetonitrile. A constant flow rate of 1.25 ml/min was used for the separation. The column was set to 28° C. and the injection volume was 25 μl.\nSample preparation: Aldoxorubicin, 24 mg/kg/inj (75% of the MTD), was administered in intracranial GBM tumor-bearing mice through tail vein injection, and after 4, 8, 16, and 24 h after injection, mice (3 animals at each time point) were euthanized by CO2 gas. Blood samples were collected by heart puncture in heparinized tubes, and centrifuged for plasma separation. Immediately after blood sampling, organs (brain, heart, kidney liver and lung) were surgically removed. The plasma and tissues were stored at −80° C. until analysis.\nFrozen samples were thawed at room temperature and homogenized in sterile saline using a PowerGen Model 125 homogenizer (Fisher Scientific) to obtain final tissue concentrations (w/v) of 150 mg/ml for the liver and brain; 125 mg/ml for the lung, heart and muscle; and 100 mg/ml for kidney. Perchloric acid (35%, v/v) was added to a 20 μl aliquot of plasma or tissue samples followed by 25 μl of mobile phase. The samples were vortexed followed by centrifugation at 10,000×g for 10 min. and 25 μl of the supernatant was applied to the HPLC column."}, "[4]": {"assay": "Aldoxorubicin retention in brain tumors and surrounding brain tissue by HPLC", "assay_type": "in vivo, mice", "details": "i.v. 24 mg/kg, 6 and 24 h after injection", "method": "as §1, with “The HPLC system used was an” for “An”, “Series” for “Series HPLC System”, “equipped with” for “having”, “respectively.” for “respectively, was used.”, “comprised of” for “containing”, “65% 50 mM” for “65%”\nSample preparation: For quantification of aldoxorubicin in brain tissue and brain tumors, mice were euthanized by CO2 inhalation 6 and 24 h after aldoxorubicin injection (24 mg/kg/inj), brains were harvested and tumors were resected. The harvested tissues were stored at −80° C. until analysis.\nFrozen samples were thawed at room temperature and homogenized in sterile saline using a PowerGen Model 125 homogenizer (Fisher Scientific) to obtain final tissue concentrations (w/v) of 150 mg/ml. Perchloric acid (35%, v/v) was then added to a […] aliquot followed by 25 μl of mobile phase. […] In the tissue samples analyzed, aldoxorubicin eluted with the retention time of doxorubicin."}, "[5]": {"assay": "Aldoxorubicin/doxorubicin detection in brain tumors by stereomicroscope epifluorescence", "assay_type": "in vivo, mice", "details": "24 h following the last injection; epifluorescence of whole brains", "method": "Aldoxorubicin/doxorubicin detection in brain tumors: Tumor-bearing mice were given intravenous injections of aldoxorubicin or doxorubicin as described above in Example 1. Mice were euthanized 24 h following the last injection. Brains were harvested and imaged using an MVX10 stereomicroscope (Olympus of America) equipped for brightfield and epifluorescence with filters encompassing doxorubicin-specific wavelengths to visualize drug accumulation."}, "[6]": {"assay": "Maximum tolerated dose in mice", "assay_type": "in vivo", "details": "intravenous"}, "[7]": {"assay": "Drug detection in cryosections of brain tissues of tumor-bearing mice (immunohistochemistry, confocal)", "details": "drug fluorescence", "description": "Immunohistochemistry: For histologic analysis, brain tissues from control and drug-treated tumor-bearing mice were harvested, snap frozen in optimal cutting temperature (OCT) compound and stored at −80° C. Cryostat sections were placed on slides and fixed in zinc-buffered formalin. Slides were blocked with 5% goat serum in 1% BSA followed by overnight incubation with primary antibodies against CD31 (102402, Biolegend, San Diego, Calif.), Ki-67 (ab156956, Abcam, Cambridge, Mass.), Vimentin (ab92547, Abcam), cleaved-Caspase-3 (CP229B, Biocare Medical), and GFAP (NB300-141, Novus Biologicals, Littleton, Colo.). Slides were then incubated with primary antibody source-specific secondary antibodies conjugated to Alexa Fluor 488 or 635 and DAN as a nuclear counterstain. The detection fluorophores used were limited to those around the inherent fluorescence spectra of doxorubicin (λex=480 nm, λem=550-590 nm) (22876313) to avoid bleed-through and enable co-detection of the drug with respect to certain antigens. Epifluorescence photomicrographs were captured at 100× and 400× magnification using an FV1000 confocal microscope (Olympus of America, Center Valley, Pa.) equipped with multi-Argon, 405, 559, and 635 diodes. Quantitative analysis was performed with Slidebook software (Intelligent Imaging Innovations, Denver, Colo.)."}, "[8]": {"details": "literature; cited from earlier work"}, "[9]": {"molecular_target": "P-glycoprotein efflux pumps (Homo sapiens, UniProt P08183)", "sequence (P08183 whole entry)": "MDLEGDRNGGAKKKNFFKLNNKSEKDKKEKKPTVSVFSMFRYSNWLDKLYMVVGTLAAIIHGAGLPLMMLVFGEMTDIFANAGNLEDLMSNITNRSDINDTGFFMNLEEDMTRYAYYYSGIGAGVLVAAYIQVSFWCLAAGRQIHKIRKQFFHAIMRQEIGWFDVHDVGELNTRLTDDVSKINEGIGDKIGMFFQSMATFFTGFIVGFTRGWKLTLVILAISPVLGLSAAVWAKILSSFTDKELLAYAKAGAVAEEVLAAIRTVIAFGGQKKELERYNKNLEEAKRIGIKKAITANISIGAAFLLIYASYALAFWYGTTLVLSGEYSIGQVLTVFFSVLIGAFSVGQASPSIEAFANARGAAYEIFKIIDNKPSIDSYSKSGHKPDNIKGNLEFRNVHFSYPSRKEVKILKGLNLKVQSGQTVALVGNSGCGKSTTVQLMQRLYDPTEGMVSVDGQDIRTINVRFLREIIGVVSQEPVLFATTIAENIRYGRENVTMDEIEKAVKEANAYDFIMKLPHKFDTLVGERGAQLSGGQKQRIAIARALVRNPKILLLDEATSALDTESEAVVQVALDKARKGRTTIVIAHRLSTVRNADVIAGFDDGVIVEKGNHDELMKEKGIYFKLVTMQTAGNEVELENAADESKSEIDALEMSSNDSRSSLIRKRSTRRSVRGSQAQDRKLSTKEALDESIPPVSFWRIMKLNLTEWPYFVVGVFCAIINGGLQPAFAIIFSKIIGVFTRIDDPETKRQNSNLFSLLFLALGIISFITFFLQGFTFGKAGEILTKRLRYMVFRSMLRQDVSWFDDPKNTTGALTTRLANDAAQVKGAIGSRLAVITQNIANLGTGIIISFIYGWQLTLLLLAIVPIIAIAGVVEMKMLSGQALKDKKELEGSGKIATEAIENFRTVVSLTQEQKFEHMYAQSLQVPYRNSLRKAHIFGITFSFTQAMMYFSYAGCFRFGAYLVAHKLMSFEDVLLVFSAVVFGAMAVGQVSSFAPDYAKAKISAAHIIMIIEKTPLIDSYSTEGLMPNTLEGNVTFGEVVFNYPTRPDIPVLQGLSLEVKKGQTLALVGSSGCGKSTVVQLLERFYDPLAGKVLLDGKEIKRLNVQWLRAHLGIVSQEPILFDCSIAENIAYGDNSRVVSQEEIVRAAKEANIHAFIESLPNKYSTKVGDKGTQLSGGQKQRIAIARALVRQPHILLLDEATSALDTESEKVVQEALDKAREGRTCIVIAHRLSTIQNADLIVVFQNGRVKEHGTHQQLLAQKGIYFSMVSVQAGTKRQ", "details": "literature; cited from earlier work"}, "[10]": {"test_system": "glioblastoma growing in the brain", "details": "literature; cited from earlier work"}, "[11]": {"test_system": "Glioblastoma cell lines", "details": "literature; cited from earlier work"}, "[12]": {"details": "22 days after implantation, aldoxorubicin treatment for 2 weeks, radiance"}, "[13]": {"details": "administered intravenously, intracranial human GBM tumors"}, "[14]": {"details": "i.v. 24 mg/kg (~75% of the MTD)"}}, "note": "“Also recorded” adds a separate entry of the source."}
{"smiles": "COc1cccc2c1C(=O)c1c(O)c3c(c(O)c1C2=O)C[C@@](O)(/C(CO)=N/NC(=O)CCCCCN1C(=O)C=CC1=O)C[C@@H]3OC1CC(N)C(O)C(C)O1.Cl", "note": "(some centres unmarked) [aldoxorubicin]", "values": [{"measurement": "average tumor size relative to the control group", "setting": "[1]; [12]", "value": 28, "unit": "%"}, {"measurement": "average tumor size relative to the doxorubicin treatment group", "setting": "[1]; [12]", "value": 40, "unit": "%"}, {"measurement": "survival of animals 34 days after tumor implantation", "setting": "[1]; 34 days, group of 8 mice", "value": "remained alive"}, {"measurement": "overall antitumor result", "setting": "[1]; [13]", "value": "induces tumor regression and significantly increases survival"}, {"measurement": "animals still alive", "setting": "[1]; after 41 days", "value": "seven of the eight"}, {"measurement": "difference in tumor growth between 8 days and 22 days within the group", "setting": "[1]; radiance", "value": "no relative difference in tumor growth"}, {"measurement": "survival time compared with vehicle-treated mice (Kaplan-Meier)", "setting": "[1]", "value": "increased survival times; also recorded: survived a longer time"}, {"measurement": "mice with tumor regrowth", "setting": "[2]; Day 29", "value": 2}, {"measurement": "mice dead", "setting": "[2]; Day 29, group of 8 mice", "value": 1}, {"measurement": "other mice with tumor regrown", "setting": "[2]; Day 33", "value": 4}, {"measurement": "mice dead", "setting": "[2]; Day 33, group of 8 mice", "value": 3}, {"measurement": "overall antitumor result", "setting": "[2]; [13]", "value": "induces tumor regression and increases survival"}, {"measurement": "mice with detectable tumor", "setting": "[2]; at 21 days, group of 8 mice", "value": 1}, {"measurement": "survival compared with vehicle (Kaplan-Meier)", "setting": "[2]; result in words", "value": "survived longer"}, {"measurement": "levels in the brain over time", "setting": "[3]; from 4 h to 24 h, total brain tissue of tumor-bearing mice", "value": "remained almost same"}, {"measurement": "plasma concentration relative to that in the brain", "setting": "[3]; [14]", "value": "more than 200 fold"}, {"measurement": "plasma concentration relative to the mean concentration in liver, heart, lung and kidney", "setting": "[3]; [14]", "value": "more than 20 fold"}, {"measurement": "time of highest drug concentration", "setting": "[3]; plasma and other organs except brain, i.v. 24 mg/kg (~75% of the MTD)", "value": 4, "unit": "h"}, {"measurement": "time to reach nearly 50% of its concentration", "setting": "[3]; plasma and other tissues except the brain", "value": 20, "unit": "h"}, {"measurement": "retention in tumor tissues relative to surrounding brain tissues", "setting": "[4]", "value": "3- to 4 fold"}, {"measurement": "accumulation in glioblastoma tumors", "setting": "[5]", "value": "accumulates in glioblastoma tumors"}, {"measurement": "maximum tolerated dose (MTD)", "setting": "[6]", "value": 32, "unit": "mg/kg/inj"}, {"measurement": "accumulation in brain tumor and normal brain tissue", "setting": "[7]", "value": "accumulates in the brain tumor but not in normal brain tissue"}]}
{"smiles": "COc1cccc2c1C(=O)c1c(O)c3c(c(O)c1C2=O)C[C@@](O)(C(=O)CO)C[C@@H]3O[C@H]1C[C@H](N)[C@H](O)[C@H](C)O1", "note": "[doxorubicin, reference compound]", "values": [{"measurement": "time after tumor implantation within which all animals died", "setting": "[1]; group of 8 mice", "value": "≤ 34", "unit": "days"}, {"measurement": "animals died", "setting": "[1]; in 22 days, group of 8 mice", "value": 2}, {"measurement": "difference in tumor growth between 8 days and 22 days within the group", "setting": "[1]; radiance", "value": "a relative difference in tumor growth"}, {"measurement": "survival time compared with vehicle-treated mice (Kaplan-Meier)", "setting": "[1]", "value": "no difference in the survival time; also recorded: no difference in the survival curves"}, {"measurement": "accumulation in glioblastoma tumors", "setting": "[5]", "value": "not doxorubicin accumulates"}, {"measurement": "maximum tolerated dose (MTD)", "setting": "[6]", "value": 8, "unit": "mg/kg/inj"}, {"measurement": "ability to cross the BBB", "setting": "[8]", "value": "lacks the ability to cross the BBB"}, {"measurement": "free concentration in glioma tissues", "setting": "[8]", "value": "below effective levels"}, {"measurement": "P-glycoprotein efflux pump substrate", "setting": "[9]", "value": "substrate of the P-glycoprotein efflux pumps"}, {"measurement": "effect on glioblastoma growing in the brain", "setting": "[10]", "value": "no effect"}, {"measurement": "effect on glioblastoma cell lines", "setting": "[11]", "value": "driven to apoptosis following growth arrest"}, {"measurement": "accumulation in brain tumor and normal brain tissue", "setting": "[7]", "value": "not found in any appreciable amount in either the tumor or normal brain"}]}
